Like-named read-outs stand apart in the source and are kept apart here.
What was measured:
rat mGlu3 receptor = rat mGlu3 receptor (Rattus norvegicus (Rat), UniProt P31422); test: mGlu3 in vitro GIRK thallium flux assay; type: cell-based; details: NAM; 2.5 min compound incubation; EC80 glutamate; HEK-293 GIRK cells
In short: (§1)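 Cells expressing rat mGlu2 or mGlu3 with GIRK, plated overnight at 37 °C. Test compounds (0.3% DMSO, 10-point 1:3 series) preincubated 2.5 or 60 min, then thallium buffer plus EC80 glutamate added. Fluorescence slope 5–15 s after addition, normalised to vehicle and maximal agonist, fitted by four-parameter logistic.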

rat mGlu2 receptor = rat mGlu2 receptor (Rattus norvegicus (Rat), UniProt P31421); test: mGlu2 in vitro GIRK thallium flux assay; type: cell-based; details: NAM, EC80 glutamate, HEK-293 GIRK cells
rat mGlu2 receptor, sequence (P31421 19-872): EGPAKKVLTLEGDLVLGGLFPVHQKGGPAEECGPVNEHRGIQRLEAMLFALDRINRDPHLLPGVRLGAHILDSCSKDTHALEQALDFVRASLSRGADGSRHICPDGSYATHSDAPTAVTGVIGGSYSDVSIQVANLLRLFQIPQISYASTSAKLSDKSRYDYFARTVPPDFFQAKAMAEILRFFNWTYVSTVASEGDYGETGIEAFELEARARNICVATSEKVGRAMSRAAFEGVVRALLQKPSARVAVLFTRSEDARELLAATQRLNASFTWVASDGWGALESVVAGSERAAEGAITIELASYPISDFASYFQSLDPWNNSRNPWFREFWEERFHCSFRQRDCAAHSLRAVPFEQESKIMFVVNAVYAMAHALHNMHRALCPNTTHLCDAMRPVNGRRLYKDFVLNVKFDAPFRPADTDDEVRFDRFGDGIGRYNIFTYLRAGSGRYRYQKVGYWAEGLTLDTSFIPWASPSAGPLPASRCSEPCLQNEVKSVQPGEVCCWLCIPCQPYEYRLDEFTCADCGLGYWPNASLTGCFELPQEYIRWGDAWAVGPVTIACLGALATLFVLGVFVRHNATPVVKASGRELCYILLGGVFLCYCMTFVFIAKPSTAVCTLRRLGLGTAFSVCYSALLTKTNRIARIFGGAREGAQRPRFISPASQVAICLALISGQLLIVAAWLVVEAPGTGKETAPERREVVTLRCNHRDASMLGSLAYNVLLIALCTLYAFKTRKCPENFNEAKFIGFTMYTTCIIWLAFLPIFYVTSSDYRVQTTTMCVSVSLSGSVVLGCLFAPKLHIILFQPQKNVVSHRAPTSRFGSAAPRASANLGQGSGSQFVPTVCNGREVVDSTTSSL
In short: as §1

[1] = 2.5 min compound incubation, read-out: mGlu2 EC50 (μM) (2.5 min)
[2] = read-out: mGlu2 EC50 (μM) (60 min), 60 min compound incubation
[3] = mGlu2 EC50 (μM) (60 min), 60 min compound incubation

rat mGlu3 receptor, sequence (P31422 23-879): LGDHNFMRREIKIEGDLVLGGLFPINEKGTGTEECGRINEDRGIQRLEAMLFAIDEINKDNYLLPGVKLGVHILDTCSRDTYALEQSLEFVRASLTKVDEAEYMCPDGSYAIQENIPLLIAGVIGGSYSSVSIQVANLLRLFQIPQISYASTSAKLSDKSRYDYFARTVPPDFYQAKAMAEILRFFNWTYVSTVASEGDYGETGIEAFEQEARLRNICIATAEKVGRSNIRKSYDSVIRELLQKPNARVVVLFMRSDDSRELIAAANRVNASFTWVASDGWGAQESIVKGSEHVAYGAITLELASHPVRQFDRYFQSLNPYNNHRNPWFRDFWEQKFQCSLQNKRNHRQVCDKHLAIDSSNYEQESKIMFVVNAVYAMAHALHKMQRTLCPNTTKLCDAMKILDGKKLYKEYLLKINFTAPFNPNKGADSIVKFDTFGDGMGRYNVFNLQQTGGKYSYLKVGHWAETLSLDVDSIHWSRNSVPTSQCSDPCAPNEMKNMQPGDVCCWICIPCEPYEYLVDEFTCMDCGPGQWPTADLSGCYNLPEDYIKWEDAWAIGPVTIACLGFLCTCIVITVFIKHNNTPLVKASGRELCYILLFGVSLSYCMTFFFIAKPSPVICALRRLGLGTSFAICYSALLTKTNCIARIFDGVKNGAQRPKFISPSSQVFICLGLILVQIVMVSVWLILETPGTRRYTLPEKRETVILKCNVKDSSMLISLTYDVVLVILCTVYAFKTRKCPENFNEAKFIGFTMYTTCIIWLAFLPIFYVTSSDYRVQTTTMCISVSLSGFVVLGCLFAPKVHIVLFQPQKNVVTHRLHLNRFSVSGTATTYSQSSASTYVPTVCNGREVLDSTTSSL

EC50 (rat mGlu2 receptor; [3]) [µM]	Compound	EC50 (rat mGlu3 receptor) [µM]	EC50 (rat mGlu2 receptor; [1]) [µM]	EC50 (rat mGlu2 receptor; [2]) [µM]
–	CCOc1ccc(-c2ccc3c(c2)NC(=O)CC(c2ccnc(Cl)c2)=N3)cc1 [Example 192, 4-(2-Chloropyridin-4-yl)-8-(4-ethoxyphenyl)-1,3-dihydro-2H-benzo[b][1,4]diazepin-2-one]	> 10	> 10	–
–	O=C(O)c1cc(-c2cccc(-c3nc(-c4ccccc4F)cc(C(F)(F)F)n3)c2)ccc1F [Example 100, 4-Fluoro-3′-(4-(2-fluorophenyl)-6-(trifluoromethyl)pyrimidin-2-yl)biphenyl-3-carboxylic Acid]	2.21	1.21	0.16
–	O=C(O)c1cc(-c2cccc(-c3nc(-c4ccc(C(F)(F)F)nc4)cc(C(F)(F)F)n3)c2)cc([N+](=O)[O-])c1 [Example 75, 5-Nitro-3′-(4-(trifluoromethyl)-6-(6-(trifluoromethyl)pyridin-3-yl)pyrimidin-2-yl)biphenyl-3-carboxylic Acid]	> 10	1.27	0.5
3.7	Cc1cc(-c2cccc(C3CC(=O)Nc4cc(C(F)(F)F)c(C)cc4N3)c2)cc(C)n1 (racemic) [Example 156, 4-(3-(2,6-Dimethylpyridin-4-yl)phenyl)-7-methyl-8-(trifluoromethyl)-4,5-dihydro-1H-benzo[b][1,4]diazepin-2(3H)-one]	> 10	> 10	–
0.11	O=C(O)c1ccc(F)c(-c2cccc(-c3nsc(-c4ccccc4)n3)c2)c1 [Example 41, 6-Fluoro-3′-(5-phenyl-1,2,4-thiadiazol-3-yl)biphenyl-3-carboxylic Acid]	> 10	0.89	–
–	O=C(O)c1cc(-c2cccc(-c3cnc(-c4ccccc4)s3)c2)ccc1F [Example 3, 4-Fluoro-3′-(2-phenylthiazol-5-yl)biphenyl-3-carboxylic Acid]	> 10	> 30	> 10
–	FC(F)(F)c1ccc(-c2cc(C(F)(F)F)nc(-c3cccc(-c4cccc(-c5nn[nH]n5)c4)c3)n2)cn1 [Example 123, 2-(3′-(2H-Tetrazol-5-yl)biphenyl-3-yl)-4-(trifluoromethyl)-6-(6-(trifluoromethyl)pyridin-3-yl)pyrimidine]	2.39	0.75	0.43
–	O=C1CC(c2ccnc(Cl)c2)=Nc2ccc(-c3ccc(C(F)(F)F)cc3F)cc2N1 [Example 201, 4-(2-Chloropyridin-4-yl)-8-(2-fluoro-4-(trifluoromethyl)phenyl)-1,3-dihydro-2H-benzo[b][1,4]diazepin-2-one]	1.61	> 10	0.52
–	NS(=O)(=O)c1cccc(-c2cn(-c3nc(-c4ccc(C(F)(F)F)nc4)cc(C(F)(F)F)n3)cn2)c1 [Example 125, 3-(1-(4-(Trifluoromethyl)-6-(6-(trifluoromethyl)pyridin-3-yl)pyrimidin-2-yl)-1H-imidazol-4-yl)benzenesulfonamide]	> 30	> 10	> 10
–	O=C(O)c1cccc(-c2cccc(-c3nc(-c4ccc(C(F)(F)F)nc4)cc(C(F)(F)F)n3)c2)c1 [Example 69, 3′-(4-(Trifluoromethyl)-6-(6-(trifluoromethyl)pyridin-3-yl)pyrimidin-2-yl)biphenyl-3-carboxylic Acid]	1.07	0.95	0.11
–	Nc1cccc(-c2cn(-c3nc(-c4ccc(C(F)(F)F)nc4)cc(C(F)(F)F)n3)cn2)c1 [Example 126, 3-(1-(4-(Trifluoromethyl)-6-(6-(trifluoromethyl)pyridin-3-yl)pyrimidin-2-yl)-1H-imidazol-4-yl)aniline]	> 30	> 30	> 10
–	O=C(O)c1cc(-c2cccc(Oc3nc(-c4ccco4)cc(C(F)(F)F)n3)c2)ccc1F [Example 128, 4-Fluoro-3′-(4-(furan-2-yl)-6-(trifluoromethyl)pyrimidin-2-yloxy)biphenyl-3-carboxylic Acid]	> 30	> 30	> 30
–	O=C1CC(c2ccnc(Cl)c2)=Nc2ccc(-c3ccccc3F)cc2N1 [Example 187, 4-(2-Chloropyridin-4-yl)-8-(2-fluorophenyl)-1,3-dihydro-2H-benzo[b][1,4]diazepin-2-one]	0.71	0.98	–
–	COc1ccc(-c2cc(C(F)(F)F)nc(-c3cccc(-c4ccc(F)c(C(=O)O)c4)c3)n2)cc1OC [Example 99, 3′-(4-(3,4-Dimethoxyphenyl)-6-(trifluoromethyl)pyrimidin-2-yl)-4-fluorobiphenyl-3-carboxylic Acid]	2.83	> 10	1.3
–	Cc1ccc(-c2cc(C(F)(F)F)nc(-c3cccc(-c4ccc(F)c(C(=O)O)c4)c3)n2)s1 [Example 112, 4-Fluoro-3′-(4-(5-methylthiophen-2-yl)-6-(trifluoromethyl)pyrimidin-2-yl)biphenyl-3-carboxylic Acid]	3.14	3.19	0.75
–	O=C(O)c1ccc(-c2ccc(-c3nc(-c4ccc(C(F)(F)F)nc4)cc(C(F)(F)F)n3)cc2)cc1 [Example 81, 4′-(4-(Trifluoromethyl)-6-(6-(trifluoromethyl)pyridin-3-yl)pyrimidin-2-yl)biphenyl-4-carboxylic Acid]	2.13	3.78	0.44
–	Cc1cc2c(cc1C(F)(F)F)NC(=O)CC(c1cccc(C#Cc3ccccc3)c1)=N2 [Example 202, 7-Methyl-4-(3-phenylethynyl-phenyl)-8-trifluoromethyl-1,3-dihydro-benzo[b][1,4]diazepin-2-one]	> 10	> 10	> 10
–	Cc1cc(Cl)ccc1-c1ccc2c(c1)NC(=O)CC(c1ccnc(Cl)c1)=N2 [Example 196, 8-(4-Chloro-2-methylphenyl)-4-(2-chloropyridin-4-yl)-1,3-dihydro-2H-benzo[b][1,4]diazepin-2-one]	2.94	3.59	0.6
–	CNC(=O)c1cc(-c2cccc(-c3nc(-c4ccc(C(F)(F)F)nc4)cc(C(F)(F)F)n3)c2)ccc1Cl [Example 85, 4-Chloro-N-methyl-3′-(4-(trifluoromethyl)-6-(6-(trifluoromethyl)pyridin-3-yl)pyrimidin-2-yl)biphenyl-3-carboxamide]	> 30	> 30	> 10
–	O=C1CC(c2ccnc(Cl)c2)=Nc2ccc(-c3ccc(Br)nc3)cc2N1 [Example 199, 8-(6-Bromopyridin-3-yl)-4-(2-chloropyridin-4-yl)-1,3-dihydro-2H-benzo[b][1,4]diazepin-2-one]	1.82	1.7	4.27
> 10	O=C(O)c1ccc(-c2cccc(-c3csc(-c4ccccc4)n3)c2)cc1 [Example 22, 3′-(2-Phenylthiazol-4-yl)biphenyl-4-carboxylic Acid]	> 30	> 30	–
–	O=C(O)c1cc(-c2cccc(-c3nc(/C=C/c4ccccc4)cc(C(F)(F)F)n3)c2)ccc1F [Example 95, (E)-4-Fluoro-3′-(4-styryl-6-(trifluoromethyl)pyrimidin-2-yl)biphenyl-3-carboxylic Acid]	> 10	> 10	–
–	Cc1cc(-c2ccoc2)nc(-c2cccc(-c3cccc(C(=O)O)c3)c2)n1 [Example 119, 3′-(4-(Furan-3-yl)-6-methylpyrimidin-2-yl)biphenyl-3-carboxylic Acid]	0.35	0.05	0.06
1.19	Cc1cc2c(cc1C(F)(F)F)NC(=O)CC(c1cccc(Oc3ccccc3)c1)=N2 [Example 143, 7-Methyl-4-(3-phenoxyphenyl)-8-(trifluoromethyl)-1H-benzo[b][1, 4]diazepin-2 (3H)-one]	2.62	2.21	–
–	Fc1ccc(C#Cc2cccc(-c3nc(-c4ccc(C(F)(F)F)nc4)cc(C(F)(F)F)n3)c2)cc1 [Example 130, 2-(3-((4-Fluorophenyl)ethynyl)phenyl)-4-(trifluoromethyl)-6-(6-(trifluoromethyl)pyridin-3-yl)pyrimidine]	> 30	> 30	> 10
–	Cc1noc(C)c1-c1cc(C(F)(F)F)nc(-c2cccc(-c3ccc(F)c(C(=O)O)c3)c2)n1 [Example 111, 3′-(4-(3,5-Dimethylisoxazol-4-yl)-6-(trifluoromethyl)pyrimidin-2-yl)-4-fluorobiphenyl-3-carboxylic Acid]	> 10	> 10	> 10
–	O=C(O)c1cccc(-c2cccc(-c3cc(-c4ccccc4)[nH]n3)c2)c1 [Example 68, 3′-(5-Phenyl-1H-pyrazol-3-yl)-[1,1′-biphenyl]-3-carboxylic Acid]	> 10	> 10	> 30
–	O=C(O)c1cc(-c2ccc(-c3nc(-c4ccc(C(F)(F)F)nc4)cc(C(F)(F)F)n3)cc2)ccc1F [Example 82, 4-Fluoro-4′-(4-(trifluoromethyl)-6-(6-(trifluoromethyl)pyridin-3-yl)pyrimidin-2-yl)biphenyl-3-carboxylic Acid]	1.32	1.42	0.49
–	Cc1cc2c(cc1C(F)(F)F)NC(=O)CC(c1cccc(C#CCO)c1)=N2 [Example 203, 4-[3-(3-Hydroxy-prop-1-ynyl)-phenyl]-7-methyl-8-trifluoromethyl-1,3-dihydro-benzo[b][1,4]diazepin-2-one]	0.39	0.65	0.02
0.2	O=C(O)c1cccc(-c2cccc(-c3csc(-c4ccccc4)n3)c2)c1 [Example 28, 3′-(2-Phenylthiazol-4-yl)biphenyl-3-carboxylic Acid]	> 10	–	–
